Test results published in patent US20230167088A1, “1-PYRAZINYLPYRAZOLYL-3-OXYALKYL ACIDS AND THEIR DERIVATIVES, AND THEIR USE FOR CONTROL OF UNDESIRED PLANT GROWTH” (BAYER AKTIENGESELLSCHAFT, priority 2020, published 2023).

Tests used:
MATIN = assay: Herbicidal pre-emergence action 2b (doubly sown, 1280 g/ha); type: in vivo, Matricaria inodora; details: doubly sown pots, dosage 1280 g/ha, visual scoring after about 3 weeks
Summary of the method: (§1)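 Visual % scores against untreated plants (0% = like control, 100% = dead) were taken roughly 3 weeks after treatment in the greenhouse. Compounds, as WP or EC with 0.5% additive, were applied in 600 l/ha water onto covering soil over seeds of paired mono-/dicot weeds in sandy loam.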

AVEFA [1] = assay: Herbicidal post-emergence action 1a (greenhouse pots, visual rating); type: in vivo, Avena fatua; details: rated visually about 3 weeks after treatment, 100% = plants have died, 0% = like control plants
Summary of the method: (§2)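 Visual scoring versus untreated plants (100% = plants dead, 0% = as control) followed roughly 3 weeks in the greenhouse after treatment. Plants grown in sandy loam pots had been sprayed on green parts at the one-leaf stage, 2–3 weeks post-sowing, with aqueous WP/EC preparations containing 0.5% additive, 600 l/ha, at 320 and/or 80 g/ha.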

STEME = assay: Herbicidal pre-emergence action 2b (doubly sown, 1280 g/ha); type: in vivo, Stellaria media; details: doubly sown pots, dosage 1280 g/ha, visual scoring after about 3 weeks
Summary of the method: as §1

ALOMY [2] = assay: Herbicidal pre-emergence action 2a (greenhouse pots, visual scoring); type: in vivo, Alopecurus myosuroides; details: dosage 320 g/ha, visual scoring after about 3 weeks
Summary of the method: (§3)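 Pre-emergence soil-surface spray: WP/EC, 0.5% additive, 600 l/ha water, 320 and/or 80 g/ha. Greenhouse ~3 wk. Visual % damage vs untreated (100% = plants dead, 0% = like control).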

ALOMY [3] = assay: Herbicidal post-emergence action 1a (greenhouse pots, visual rating); type: in vivo, Alopecurus myosuroides; details: rated visually about 3 weeks after treatment, 100% = plants have died, 0% = like control plants
Summary of the method: as §2

POAAN = assay: Herbicidal post-emergence action 1b (twin sowing, 1280 g/ha); type: in vivo, Poa annua; details: dosage 1280 g/ha, visual rating about 3 weeks after treatment
Summary of the method: (§4)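 Compounds formulated as WP or EC were applied with 0.5% additive in 600 L/ha water onto one-leaf-stage weeds, each pot sown with one monocot and one dicot species in sandy loam. After roughly 3 weeks in the greenhouse, visual percent activity was scored against untreated plants.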

LOLRI = assay: Herbicidal pre-emergence action 2a (greenhouse pots, visual scoring); type: in vivo, Lolium rigidum; details: dosage 320 g/ha, visual scoring after about 3 weeks vs untreated controls
Summary of the method: as §3

AMARE [4] = assay: Herbicidal pre-emergence action 2b (doubly sown, 1280 g/ha); type: in vivo, Amaranthus retroflexus; details: doubly sown pots, dosage 1280 g/ha, visual scoring after about 3 weeks
Summary of the method: as §1

AVEFA [5] = assay: Herbicidal pre-emergence action 2a (greenhouse pots, visual scoring); type: in vivo, Avena fatua; details: dosage 320 g/ha, visual scoring after about 3 weeks
Summary of the method: as §3

VIOTR = assay: Herbicidal post-emergence action 1a (greenhouse pots, visual rating); type: in vivo, Viola tricolor; details: visual rating about 3 weeks after treatment
Summary of the method: as §2

AMARE [6] = assay: Herbicidal pre-emergence action 2a (greenhouse pots, visual scoring); type: in vivo, Amaranthus retroflexus; details: dosage 320 g/ha, visual scoring after about 3 weeks vs untreated controls
Summary of the method: as §3

POLCO = assay: as above; type: in vivo, Polygonum convolvulus; details: dosage 320 g/ha, visual scoring after about 3 weeks vs untreated controls
Summary of the method: as §3

ECHCG [7] = assay: Herbicidal pre-emergence action 2b (doubly sown, 1280 g/ha); type: in vivo, Echinochloa crus-galli; details: doubly sown pots, dosage 1280 g/ha, visual scoring after about 3 weeks
Summary of the method: as §1

ECHCG [8] = assay: Herbicidal post-emergence action 1b (twin sowing, 1280 g/ha); type: in vivo, Echinochloa crus-galli; details: dosage 1280 g/ha, visual rating about 3 weeks after treatment
Summary of the method: as §4

| Structure (SMILES) | Pre-emergence action at 1280 g/ha against MATIN in % (MATIN) [%] | Post-emergence action against AVEFA in % (AVEFA [1]; Dosage 80 g/ha) [%] | Post-emergence action against AVEFA in % (AVEFA [1]; Dosage 320 g/ha) [%] | Pre-emergence action at 1280 g/ha against STEME in % (STEME) [%] | Pre-emergence action against ALOMY in % (ALOMY [2]) [%] | Post-emergence action against ALOMY in % (ALOMY [3]; Dosage 80 g/ha) [%] | Post-emergence action against ALOMY in % (ALOMY [3]; Dosage 320 g/ha) [%] | Post-emergence action at 1280 g/ha against POAAN in % (POAAN) [%] | Pre-emergence action against LOLRI in % (LOLRI) [%] | Pre-emergence action at 1280 g/ha against AMARE in % (AMARE [4]) [%] | Pre-emergence action against AVEFA in % (AVEFA [5]) [%] | Post-emergence action against VIOTR in % (VIOTR; dosage 80 g/ha) [%] | Post-emergence action against VIOTR in % (VIOTR; dosage 320 g/ha) [%] | Pre-emergence action against AMARE in % (AMARE [6]) [%] | Pre-emergence action against POLCO in % (POLCO) [%] | Pre-emergence action at 1280 g/ha against ECHCG in % (ECHCG [7]) [%] | Post-emergence action at 1280 g/ha against ECHCG in % (ECHCG [8]) [%] |
| --- | --- | --- | --- | --- | --- | --- | --- | --- | --- | --- | --- | --- | --- | --- | --- | --- | --- |
| C[C@H](Oc1nn(-c2cnccn2)c(-c2cncc(F)c2)c1Br)C(=O)O [Example I-37] | 100 | 90 | 90 | 100 | 100 | 90 | 100 | 100 | 100 | 100 | 90 | 80 | 90 | 90 | 100 | 100 | 100 |
| COC(=O)[C@@H](C)Oc1nn(-c2cnccn2)c(-c2cncc(F)c2)c1Br [Example I-39] | 100 | 80 | 90 | 100 | 100 | 90 | 100 | 100 | 100 | 100 | 90 | 80 | 90 | 100 | 90 | 100 | 100 |
| COC(=O)[C@@H](C)Oc1nn(-c2cnccn2)c(-c2ccc(F)c(F)c2)c1Br [Example I-45] | 100 | – | 80 | 100 | 100 | 90 | 90 | 100 | 90 | 100 | 80 | 80 | 90 | 100 | 100 | 100 | 100 |
| C[C@@H](Oc1nn(-c2cnccn2)c(-c2cccc(F)c2)c1Br)C(=O)O [Example I-48] | 100 | 80 | – | 100 | 100 | 90 | – | 100 | 100 | 100 | 90 | – | – | 100 | 100 | 100 | 100 |
| CCOC(=O)COc1nn(-c2cnccn2)c(-c2ccc(F)nc2)c1Cl [Example I-53] | 100 | – | – | 100 | 100 | – | – | 100 | 80 | 100 | 90 | 90 | – | 100 | 90 | 100 | 100 |
